Measured values published in patent publication US12318373B2, “Methods of treating gastrointestinal stromal tumors” (Deciphera Pharmaceuticals, LLC, priority 2019, dated 2025).

Tested on: GIST patients
Experiment: Example 3: safety, TEAEs in GIST patients at ≥100 mg daily
Type: in vivo, human
Description: Grade 3 or 4 treatment-emergent adverse events (TEAEs) in >5% of patients were lipase increased (18%; n=33), anemia (11%; n=20), hypertension (7%; n=13) and abdominal pain (6%; n=11). 13% of patients (n=24) experienced TEAEs leading to study treatment discontinuation, 17% of patients (n=31) experienced TEAEs leading to dose reduction and 49% of patients (n=88) had TEAEs leading to study drug interruption. Table 3 lists TEAEs>10% for GIST patients treated with ≥100 mg of ripretinib daily.

[1] = 1st column pair, head not printed (likely Grade 1/2)
[2] = 3rd column pair, head not printed (likely all grades)

Structure (SMILES): CCn1c(=O)c(-c2cc(NC(=O)Nc3ccccc3)c(F)cc2Br)cc2cnc(NC)cc21 [ripretinib]
- Patients with TEAEs leading to dose reduction, %: 17%
- Patients with TEAEs leading to dose reduction, number: 31
- Patients with TEAEs leading to study drug interruption, %: 49%
- Patients with TEAEs leading to study drug interruption, number: 88
- Patients with TEAEs leading to study treatment discontinuation, %: 13%
- Patients with TEAEs leading to study treatment discontinuation, number: 24
- Abdominal pain: patients, % [1]: (18%)
- Abdominal pain: patients, number [1]: 33
- Actinic keratosis: patients, % [1]: (14%)
- Actinic keratosis: patients, number [1]: 25
- Alopecia: patients, % [1]: (57%)
- Alopecia: patients, number [1]: 102
- Amylase increased: patients, % [1]: (11%)
- Amylase increased: patients, number [1]: 19
- Anemia: patients, % [1]: (10%)
- Anemia: patients, number [1]: 18
- Arthralgia: patients, % [1]: (22%)
- Arthralgia: patients, number [1]: 40
- Back Pain: patients, % [1]: (17%)
- Back Pain: patients, number [1]: 30
- Blood bilirubin increase: patients, % [1]: (9%)
- Blood bilirubin increase: patients, number [1]: 16
- Blood creatine phosphokinase increased: patients, % [1]: (7%)
- Blood creatine phosphokinase increased: patients, number [1]: 13
- Constipation: patients, % [1]: (37%)
- Constipation: patients, number [1]: 67
- Cough: patients, % [1]: (21%)
- Cough: patients, number [1]: 37
- Decreased appetite: patients, % [1]: (34%)
- Decreased appetite: patients, number [1]: 60
- Diarrhea: patients, % [1]: (28%)
- Diarrhea: patients, number [1]: 50
- Dizziness: patients, % [1]: (16%)
- Dizziness: patients, number [1]: 29
- Dry skin: patients, % [1]: (21%)
- Dry skin: patients, number [1]: 37
- Dysgeusia: patients, % [1]: (11%)
- Dysgeusia: patients, number [1]: 20
- Dyspnea: patients, % [1]: (18%)
- Dyspnea: patients, number [1]: 32
- Fatigue: patients, % [1]: (53%)
- Fatigue: patients, number [1]: 94
- Headache: patients, % [1]: (18%)
- Headache: patients, number [1]: 33
- Hypertension: patients, % [1]: (14%)
- Hypertension: patients, number [1]: 25
- Hypokalaemia: patients, % [1]: (12%)
- Hypokalaemia: patients, number [1]: 21
- Hypomagnesaemia: patients, % [1]: (10%)
- Hypomagnesaemia: patients, number [1]: 18
- Hypophosphataemia: patients, % [1]: (10%)
- Hypophosphataemia: patients, number [1]: 17
- Insomnia: patients, % [1]: (12%)
- Insomnia: patients, number [1]: 21
- Lipase increased: patients, % [1]: (10%)
- Lipase increased: patients, number [1]: 18
- Muscle spasms: patients, % [1]: (26%)
- Muscle spasms: patients, number [1]: 47
- Myalgia: patients, % [1]: (44%)
- Myalgia: patients, number [1]: 79
- Nausea: patients, % [1]: (43%)
- Nausea: patients, number [1]: 77
- Pain in extremity: patients, % [1]: (10%)
- Pain in extremity: patients, number [1]: 18
- Palmar-plantar erythrodysaesthesia syndrome: patients, % [1]: (40%)
- Palmar-plantar erythrodysaesthesia syndrome: patients, number [1]: 71
- Pruritus: patients, % [1]: (10%)
- Pruritus: patients, number [1]: 18
- Rash maculo-papular: patients, % [1]: (10%)
- Rash maculo-papular: patients, number [1]: 18
- Rash: patients, % [1]: (15%)
- Rash: patients, number [1]: 27
- Seborrhoeic keratosis: patients, % [1]: (12%)
- Seborrhoeic keratosis: patients, number [1]: 21
- Skin papilloma: patients, % [1]: (10%)
- Skin papilloma: patients, number [1]: 17
- Upper respiratory tract infection: patients, % [1]: (10%)
- Upper respiratory tract infection: patients, number [1]: 18
- Urinary tract infection: patients, % [1]: (9%)
- Urinary tract infection: patients, number [1]: 16
- Vision blurred: patients, % [1]: (10%)
- Vision blurred: patients, number [1]: 17
- Vomiting: patients, % [1]: (24%)
- Vomiting: patients, number [1]: 42
- Weight decreased: patients, % [1]: (29%)
- Weight decreased: patients, number [1]: 51
- Abdominal pain: patients, % [2]: (25%)
- Abdominal pain: patients, number [2]: 44
- Actinic keratosis: patients, % [2]: (14%)
- Actinic keratosis: patients, number [2]: 25
- Alopecia: patients, % [2]: (57%)
- Alopecia: patients, number [2]: 102
- Amylase increased: patients, % [2]: (12%)
- Amylase increased: patients, number [2]: 21
- Anemia: patients, % [2]: (21%)
- Anemia: patients, number [2]: 38
- Arthralgia: patients, % [2]: (22%)
- Arthralgia: patients, number [2]: 40
- Back Pain: patients, % [2]: (18%)
- Back Pain: patients, number [2]: 32
- Blood bilirubin increase: patients, % [2]: (12%)
- Blood bilirubin increase: patients, number [2]: 21
- Blood creatine phosphokinase increased: patients, % [2]: (10%)
- Blood creatine phosphokinase increased: patients, number [2]: 18
- Constipation: patients, % [2]: (37%)
- Constipation: patients, number [2]: 67
- Cough: patients, % [2]: (21%)
- Cough: patients, number [2]: 37
- Decreased appetite: patients, % [2]: (35%)
- Decreased appetite: patients, number [2]: 62
- Diarrhea: patients, % [2]: (30%)
- Diarrhea: patients, number [2]: 53
- Dizziness: patients, % [2]: (16%)
- Dizziness: patients, number [2]: 29
- Dry skin: patients, % [2]: (21%)
- Dry skin: patients, number [2]: 37
- Dysgeusia: patients, % [2]: (11%)
- Dysgeusia: patients, number [2]: 20
- Dyspnea: patients, % [2]: (20%)
- Dyspnea: patients, number [2]: 36
- Fatigue: patients, % [2]: (55%)
- Fatigue: patients, number [2]: 98
- Headache: patients, % [2]: (19%)
- Headache: patients, number [2]: 34
- Hypertension: patients, % [2]: (21%)
- Hypertension: patients, number [2]: 38
- Hypokalaemia: patients, % [2]: (15%)
- Hypokalaemia: patients, number [2]: 26
- Hypomagnesaemia: patients, % [2]: (10%)
- Hypomagnesaemia: patients, number [2]: 18
- Hypophosphataemia: patients, % [2]: (14%)
- Hypophosphataemia: patients, number [2]: 25
- Insomnia: patients, % [2]: (12%)
- Insomnia: patients, number [2]: 21
- Lipase increased: patients, % [2]: (29%)
- Lipase increased: patients, number [2]: 51
- Muscle spasms: patients, % [2]: (26%)
- Muscle spasms: patients, number [2]: 47
- Myalgia: patients, % [2]: (44%)
- Myalgia: patients, number [2]: 79
- Nausea: patients, % [2]: (44%)
- Nausea: patients, number [2]: 78
- Pain in extremity: patients, % [2]: (11%)
- Pain in extremity: patients, number [2]: 19
- Palmar-plantar erythrodysaesthesia syndrome: patients, % [2]: (40%)
- Palmar-plantar erythrodysaesthesia syndrome: patients, number [2]: 72
- Pruritus: patients, % [2]: (10%)
- Pruritus: patients, number [2]: 18
- Rash maculo-papular: patients, % [2]: (10%)
- Rash maculo-papular: patients, number [2]: 18
- Rash: patients, % [2]: (15%)
- Rash: patients, number [2]: 27
- Seborrhoeic keratosis: patients, % [2]: (12%)
- Seborrhoeic keratosis: patients, number [2]: 21
- Skin papilloma: patients, % [2]: (10%)
- Skin papilloma: patients, number [2]: 17
- Upper respiratory tract infection: patients, % [2]: (10%)
- Upper respiratory tract infection: patients, number [2]: 18
- Urinary tract infection: patients, % [2]: (11%)
- Urinary tract infection: patients, number [2]: 20
- Vision blurred: patients, % [2]: (10%)
- Vision blurred: patients, number [2]: 17
- Vomiting: patients, % [2]: (25%)
- Vomiting: patients, number [2]: 44
- Weight decreased: patients, % [2]: (29%)
- Weight decreased: patients, number [2]: 52
- Tolerability (GIST patients): generally well tolerated
- Abdominal pain: patients, number (head not printed (Grade 3/4)): 11
- Actinic keratosis: patients, % (head not printed (Grade 3/4)): (0%)
- Actinic keratosis: patients, number (head not printed (Grade 3/4)): 0
- Alopecia: patients, % (head not printed (Grade 3/4)): (0%)
- Alopecia: patients, number (head not printed (Grade 3/4)): 0
- Amylase increased: patients, % (head not printed (Grade 3/4)): (1%)
- Amylase increased: patients, number (head not printed (Grade 3/4)): 2
- Anemia: patients, number (head not printed (Grade 3/4)): 20
- Arthralgia: patients, % (head not printed (Grade 3/4)): (0%)
- Arthralgia: patients, number (head not printed (Grade 3/4)): 0
- Back Pain: patients, % (head not printed (Grade 3/4)): (1%)
- Back Pain: patients, number (head not printed (Grade 3/4)): 2
- Blood bilirubin increase: patients, % (head not printed (Grade 3/4)): (3%)
- Blood bilirubin increase: patients, number (head not printed (Grade 3/4)): 5
- Blood creatine phosphokinase increased: patients, % (head not printed (Grade 3/4)): (3%)
- Blood creatine phosphokinase increased: patients, number (head not printed (Grade 3/4)): 5
- Constipation: patients, % (head not printed (Grade 3/4)): (0%)
- Constipation: patients, number (head not printed (Grade 3/4)): 0
- Cough: patients, % (head not printed (Grade 3/4)): (0%)
- Cough: patients, number (head not printed (Grade 3/4)): 0
- Decreased appetite: patients, % (head not printed (Grade 3/4)): (1%)
- Decreased appetite: patients, number (head not printed (Grade 3/4)): 2
- Diarrhea: patients, % (head not printed (Grade 3/4)): (2%)
- Diarrhea: patients, number (head not printed (Grade 3/4)): 3
- Dizziness: patients, % (head not printed (Grade 3/4)): (0%)
- Dizziness: patients, number (head not printed (Grade 3/4)): 0
- Dry skin: patients, % (head not printed (Grade 3/4)): (0%)
- Dry skin: patients, number (head not printed (Grade 3/4)): 0
- Dysgeusia: patients, % (head not printed (Grade 3/4)): (0%)
- Dysgeusia: patients, number (head not printed (Grade 3/4)): 0
- Dyspnea: patients, % (head not printed (Grade 3/4)): (2%)
- Dyspnea: patients, number (head not printed (Grade 3/4)): 4
- Fatigue: patients, % (head not printed (Grade 3/4)): (2%)
- Fatigue: patients, number (head not printed (Grade 3/4)): 4
- Headache: patients, % (head not printed (Grade 3/4)): (1%)
- Headache: patients, number (head not printed (Grade 3/4)): 1
- Hypertension: patients, number (head not printed (Grade 3/4)): 13
- Hypokalaemia: patients, % (head not printed (Grade 3/4)): (3%)
- Hypokalaemia: patients, number (head not printed (Grade 3/4)): 5
- Hypomagnesaemia: patients, % (head not printed (Grade 3/4)): (0%)
- Hypomagnesaemia: patients, number (head not printed (Grade 3/4)): 0
- Hypophosphataemia: patients, % (head not printed (Grade 3/4)): (5%)
- Hypophosphataemia: patients, number (head not printed (Grade 3/4)): 8
- Insomnia: patients, % (head not printed (Grade 3/4)): (0%)
- Insomnia: patients, number (head not printed (Grade 3/4)): 0
- Lipase increased: patients, number (head not printed (Grade 3/4)): 33
- Muscle spasms: patients, % (head not printed (Grade 3/4)): (0%)
- Muscle spasms: patients, number (head not printed (Grade 3/4)): 0
- Myalgia: patients, % (head not printed (Grade 3/4)): (0%)
- Myalgia: patients, number (head not printed (Grade 3/4)): 0
- Nausea: patients, % (head not printed (Grade 3/4)): (1%)
- Nausea: patients, number (head not printed (Grade 3/4)): 1
- Pain in extremity: patients, % (head not printed (Grade 3/4)): (1%)
- Pain in extremity: patients, number (head not printed (Grade 3/4)): 1
- Palmar-plantar erythrodysaesthesia syndrome: patients, % (head not printed (Grade 3/4)): (1%)
- Palmar-plantar erythrodysaesthesia syndrome: patients, number (head not printed (Grade 3/4)): 1
- Pruritus: patients, % (head not printed (Grade 3/4)): (0%)
- Pruritus: patients, number (head not printed (Grade 3/4)): 0
- Rash maculo-papular: patients, % (head not printed (Grade 3/4)): (0%)
- Rash maculo-papular: patients, number (head not printed (Grade 3/4)): 0
- Rash: patients, % (head not printed (Grade 3/4)): (0%)
- Rash: patients, number (head not printed (Grade 3/4)): 0
- Seborrhoeic keratosis: patients, % (head not printed (Grade 3/4)): (0%)
- Seborrhoeic keratosis: patients, number (head not printed (Grade 3/4)): 0
- Skin papilloma: patients, % (head not printed (Grade 3/4)): (0%)
- Skin papilloma: patients, number (head not printed (Grade 3/4)): 0
- Upper respiratory tract infection: patients, % (head not printed (Grade 3/4)): (0%)
- Upper respiratory tract infection: patients, number (head not printed (Grade 3/4)): 0
- Urinary tract infection: patients, % (head not printed (Grade 3/4)): (2%)
- Urinary tract infection: patients, number (head not printed (Grade 3/4)): 4
- Vision blurred: patients, % (head not printed (Grade 3/4)): (0%)
- Vision blurred: patients, number (head not printed (Grade 3/4)): 0
- Vomiting: patients, % (head not printed (Grade 3/4)): (1%)
- Vomiting: patients, number (head not printed (Grade 3/4)): 2
- Weight decreased: patients, % (head not printed (Grade 3/4)): (1%)
- Weight decreased: patients, number (head not printed (Grade 3/4)): 1
